Source: PMC9428149, “Tackling recalcitrant Pseudomonas aeruginosa infections in critical illness via anti-virulence monotherapy” (Nature Communications, 2022)
Several values for one entry are separate records, joined by “and”; a condition that tells them apart may be missing. Equal values may be shown once. Entries after “also recorded” stand apart in the source; their conditions may differ. Read-outs that look alike come from different tables or passages of the source.

Tests used:
[1] = DMPK of D88 in mice (plasma); type: in vivo, mouse; details: for half-life: read-out: half-life (T ½) (converted)
Description: Experiments were conducted by Aptuit (Verona) S.rl, an Evotec Company in Italy. Six weeks old male CD-1 mice were obtained from Charles River Laboratories, Italy. Mice were maintained on a 12 h light cycle with ad libitum access to rodent feed and water.
Healthy animals received IV 1.0 mg kg^−1 or SC administration of the 10.2 mg kg^−1 in homogeneous suspension in 0.5 % HPMC in water at the volume of 1.7 mL kg^−1. Following administration, blood samples were collected under deep isoflurane anesthesia from the cava vein of each mouse into tubes with K3EDTA, thoroughly but gently mixed, and placed on wet ice. Within 0.5 h of collection, blood was centrifuged (2500 g for 10 min at 4 °C) and within 0.5 h, aliquots of plasma were transferred into appropriately labeled sample tubes. A first 20 µL aliquot were mixed with 80 µL of Hepes 0.1 N. A second 5 µL aliquot of plasma was added to a well plate for urea quantification without dilution. Plasma samples were processed using a method based on protein precipitation with acetonitrile followed by HPLC/MS-MS analysis with an optimized analytical method.

A549 cells = experiment: MTT cytotoxicity, A549; type: cell-based, human; details: for Cell viability (MTT) relative to Vehicle: A549, replicates
Description: For the determination of cytotoxicity, cell viability was determined using the MTT (3-[4, 5-dimethyl-2-thiazolyl]−2, 5-diphenyl-2H-tetrazolium bromide) assay in the presence and absence of compound (D88). […] The cells were then treated with either vehicle or different concentrations of D88 (10, 20, 30, 40, and 50 µM) for 24 h at 37 °C and 5% CO2. After 24 h, the cells were washed three times with PBS and were incubated in 200 μL PBS containing 200 μg mL^−1 MTT (Sigma-Aldrich) in a 96-well culture plate for 2 h at 37 °C and 5% CO2. Following incubation, the supernatant was discarded, and the cells were lysed in 95% isopropanol and 5% formic acid.

[2] = male, CD-1, mouse, 1 mg/kg IV, plasma
[3] = male, CD-1, mouse, 10 mg/kg SC, plasma

With `N#Cc1ccc(NC(=O)C(F)C(=O)Nc2ccc(Oc3ccccc3)cc2)cc1` (stereo not shown) [D88] the Clast ([1]; 1 mg/kg IV, plasma) was 14.2 ng/mL, the Clast ([1]; 10 mg/kg SC, plasma) was 66.6 ng/mL and the “Concentration” value ([1]; IV Injection 1mg/kg, Time 0.08 h, individual animals, 1 mg/kg) was 648 ng/mL and 1150 ng/mL and 1460 ng/mL. For the same molecule, the “Concentration” value ([1]; IV Injection 1mg/kg, Time 0.33 h, individual animals, 1 mg/kg) was 210 ng/mL and 298 ng/mL and 486 ng/mL, the “Concentration” value ([1]; IV Injection 1mg/kg, Time 0.67 h, individual animals, 1 mg/kg) was 77.1 ng/mL and 131 ng/mL and the “Concentration” value ([1]; IV Injection 1mg/kg, Time 1 h, individual animals, 1 mg/kg) was 10.9 ng/mL and 25.8 ng/mL and 57.4 ng/mL. For the same molecule, the “Concentration” value ([1]; SC Injection 10mg/kg, Time 0.08 h, individual animals, 10 mg/kg) was 491 ng/mL and 600 ng/mL and 954 ng/mL and 1250 ng/mL, the “Concentration” value ([1]; SC Injection 10mg/kg, Time 0.33 h, individual animals, 10 mg/kg) was 712 ng/mL and 1020 ng/mL and 1060 ng/mL and 1590 ng/mL and the “Concentration” value ([1]; SC Injection 10mg/kg, Time 0.67 h, individual animals, 10 mg/kg) was 581 ng/mL and 875 ng/mL and 940 ng/mL and 1190 ng/mL. For the same molecule, the “Concentration” value ([1]; SC Injection 10mg/kg, Time 1 h, individual animals, 10 mg/kg) was 513 ng/mL and 854 ng/mL and 838 ng/mL and 1070 ng/mL, the “Concentration” value ([1]; SC Injection 10mg/kg, Time 2 h, individual animals, 10 mg/kg) was 746 ng/mL and 683 ng/mL and 744 ng/mL and the “Concentration” value ([1]; SC Injection 10mg/kg, Time 3.8 h, individual animals, 10 mg/kg) was 90.5 ng/mL and 323 ng/mL and 480 ng/mL and 304 ng/mL. For the same molecule, the “Concentration” value ([1]; SC Injection 10mg/kg, Time 6 h, individual animals, 10 mg/kg) was 21.9 ng/mL and 63.8 ng/mL and 101 ng/mL and 79.7 ng/mL, the concentration at 0.67 h ([1]; male, CD-1, mouse, plasma, iv, 1 mg/kg, IV Injection 1mg/kg, Time 0.67 h, individual animals) was 76.4 ng/mL and the concentration at 2 h ([1]; male, CD-1, mouse, plasma, iv, 1 mg/kg, IV Injection 1mg/kg, Time 2 h, individual animals) was 5.9 ng/mL. For the same molecule, the concentration at 2 h ([1]; male, CD-1, mouse, plasma, sc, 10 mg/kg, SC Injection 10mg/kg, Time 2 h, individual animals) was 443 ng/mL, the Cmax [1, 2] was 1090 ng/mL and the Tmax [1, 2] was 4.8 min. For the same molecule, the half-life [1, 2] was 16.2 min, the Cmax [1, 3] was 1100 ng/mL and the Tmax [1, 3] was 19.8 min. The half-life [1, 3] was 75 min, the cell viability (A549 cells; A549, 10-50 µM, 24 h) was “None of the used compound concentrations exerted any cytotoxic effect; also recorded: no significant changes in cell viability” and the “Cell viability (MTT) relative to Vehicle” value (A549 cells; 10 μM) was 104.92 and 112.79 and 105.24 and 97.24 and 88.17. For the same molecule, the “Cell viability (MTT) relative to Vehicle” value (A549 cells; 20 μM) was 104.85 and 98.03 and 95.15 and 98.27 and 93.91, the “Cell viability (MTT) relative to Vehicle” value (A549 cells; 30 μM) was 88.06 and 91.37 and 110.19 and 88.29 and 118.10 and the “Cell viability (MTT) relative to Vehicle” value (A549 cells; 40 μM) was 104.24 and 86.59 and 104.97 and 101.16 and 96.70. For the same molecule, the “Cell viability (MTT) relative to Vehicle” value (A549 cells; 50 μM) was 95.15 and 105.16 and 99.77 and 98.12.
